{
  "source": "patent US10881638B2",
  "about": "“Eye health composition” (Laboratoires Thea, priority 2015, dated 2021)",
  "molecules": {"B1": {"name": "ranibizumab: VEGF inhibitor used since 2007 for the wet form of AMD (antibody, chains of the INN, looked up, V domains shown)", "VH": "EVQLVESGGGLVQPGGSLRLSCAASGYDFTHYGMNWVRQAPGKGLEWVGWINTYTGEPTYAADFKRRFTFSLDTSKSTAYLQMNSLRAEDTAVYYCAKYPYYYGTSHWYFDVWGQGTLVTVSS", "VL": "DIQLTQSPSSLSASVGDRVTITCSASQDISNYLNWYQQKPGKAPKVLIYFTSSLHSGVPSRFSGSGSGTDFTLTISSLQPEDFATYYCQQYSTVPWTFGQGTKVEIK", "modifications": "Fab"}},
  "key": {"[1]": {"test_system": "VEGFR receptors (VEGFR1 and VEGFR2), p-VEGFR2, VEGF", "assay": "Western blot of the VEGF pathway in differentiated (healthy) ARPE-19 cells", "type": "cell-based, human", "conditions": "differentiated ARPE-19, 24 h, 20 μM resveratrol (R20)", "method": "The protocol used is the same as the one described in the example II-2, except for the cells studied: Cells studied: culture of differentiated ARPE-19 (human retinal pigment epithelium) cells. The undifferentiated cells are seeded in T75 flasks. The cells are maintained at 37° C., and in the presence of 5% CO2 in the medium DMEM/F12 (GIBCO; 31331), completed with 10% FBS (Lonza) and 15 mM HEPES (pH 7.4; GIBCO). When the cells reach confluence, the medium is replaced by DMEM/F12 (GIBCO; 31331), completed with 1% FBS (Lonza) and HEPES (15 mM pH 7.4; GIBCO). The media were changed 2 times per week for 8 weeks. Said cells can be equated with undamaged or healthy retinal cells."}, "[2]": {"test_system": "VEGFR receptors (VEGFR1 and VEGFR2), p-VEGFR2, VEGF", "assay": "Western blot of the VEGF pathway in undifferentiated (pathological) ARPE-19 cells", "type": "cell-based, human", "conditions": "undifferentiated ARPE-19, 24 h, 20 μM resveratrol (R20) or equivalent (A20)", "quoted_text": "Cells studied: culture of undifferentiated ARPE-19 (ATCC® CRL-2302™) (human retinal pigment epithelium) cells.\nThe cells were maintained at 37° C., and in the presence of 5% CO2 in the medium DMEM/F12 (GIBCO; 31331), completed with 10% FBS (Lonza) and 15 mM HEPES (pH 7.4; GIBCO).\nb) Incubation Between the Compositions (Formula A or B) and the Cells: 1, 5, 10 or 20 μM.\nThe 10 μM equivalent from formula B also corresponding to 0.115 mg/mL of formula B in DMEM/F12+1% FBS w/o phenol red.\nThe day prior to treatment, the medium was eliminated and replaced by DMEM/F12 without phenol red (GIBCO; 21041), completed with 1% FBS (Lonza) and 15 mM HEPES (pH 7.4; GIBCO).\nAfter 24 h of stimulation, the media were eliminated, the cells were washed with PBS 1× then scrubbed in PBS 1×. The cells were centrifuged and the remainder was resuspended in the RIPA buffer along with a cocktail of protease inhibitors (Roche) and phosphatase inhibitors. The cells were lysed in ice for 30 minutes, then centrifuged. The protein concentration was determined by means of a protein quantification kit (Lowry kit, biorad). […] The membranes were again washed 3 times in 0.1% PBS-T and the signal was detected by ECL (Tebu bio). The images were recorded with the ChemiDoc imaging system and analyzed with Quantity One Software (Biorad) software.\nThe β-actin was also quantified in order to relativize the levels of expression."}, "VEGF [3]": {"test_system": "VEGF", "conditions": "in vitro, human retinal pigmentary epithelium cells (HRPE cells); cited from earlier work"}, "VEGF [4]": {"test_system": "VEGF", "conditions": "wet form of AMD, repeated intravitreal injections; cited from earlier work"}},
  "data": [
    {"molecule": "Oc1ccc(/C=C/c2cc(O)cc(O)c2)cc1", "note": "[resveratrol]", "values": [
      {"measurement": "effect on VEGF receptors of healthy cells, resveratrol alone", "setting": "[1]", "value": "has no effect on healthy cells"},
      {"measurement": "expression of VEGF receptors, resveratrol alone versus composition", "setting": "[2]", "value": "makes it possible to reduce the expression of VEGF receptors"},
      {"measurement": "overexpression of VEGF induced by cytokines", "setting": "VEGF [3]", "value": "inhibiting in vitro the overexpression of VEGF"}
    ]},
    {"molecule": "pegaptanib", "values": [
      {"measurement": "effect of the treatment", "setting": "VEGF [4]", "value": "little effect"}
    ]},
    {"molecule": "B1", "values": [
      {"measurement": "unresponsive or no longer responsive to the treatment", "setting": "VEGF [4]", "value": "about 30%"}
    ]}
  ]
}
